One data set concerns the target wild type (WT) pfDHFR (Plasmodium falciparum, UniProt P13922, N108S/R59C). Nature of the data set: Inhibition of wild type pfDHFR (Ki). It counts as biochemical. As for the experimental part: (§1) The synthesized 2,4-diamino-6-ethylpyrimdine derivatives as the hydrochloride salts were tested for the activities against Plasmodium falciparum (P. falciparum) according to the standard methods. These include the inhibition of dihydrofolate reductase (DHFR) enzymes of P. falciparum including, wild type (WT) and quadruple mutants (N51IC59RS108NI164L) (QM). The inhibition was expressed as inhibition constants (Ki) in nano molar (nM).

Data set [1] deals with quadruple mutant N51I + C59R + S108N + I164L (QM) pfDHFR (Plasmodium falciparum, UniProt P13922, I164L/N51I). Kind of data set: Inhibition of quadruple mutant pfDHFR (Ki). The class given is biochemical. As for the experimental part:
as §1

The target of data set [2] is T1, Human dihydrofolate reductase (hDHFR) (Homo sapiens, UniProt P00374).
T1 sequence (P00374 1-187): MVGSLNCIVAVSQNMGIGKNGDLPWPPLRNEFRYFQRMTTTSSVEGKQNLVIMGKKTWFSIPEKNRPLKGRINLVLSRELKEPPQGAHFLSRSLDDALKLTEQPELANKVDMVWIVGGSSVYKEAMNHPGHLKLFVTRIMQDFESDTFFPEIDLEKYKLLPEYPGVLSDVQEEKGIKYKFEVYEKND
Nature of the data set: Inhibition of human dihydrofolate reductase (Ki). The class given is biochemical. The following applies: human DHFR; hydrochloride salts.

For data set [3], the system named is P. falciparum TM4/8.2 (wild type). Kind of data set: microbe, parasite or virus in culture. It counts as cell-based, Plasmodium falciparum. The conditions noted are these: Plasmodium falciparum, read-out: IC50 P. falciparum TM4/8.2 (WT). The text has this: (§2) In Vitro Antimalarial Activites Against P. falciparum and Cytotoxicity Towards Mammalian Cells (Vero Cells)

Data set [4] relates to P. falciparum V1/S (N51I + C59R + S108 + I164L). Nature of the data set: microbe, parasite or virus in culture. The class given is cell-based, Plasmodium falciparum. The following applies: Plasmodium falciparum, read-out: IC50 P. falciparum V1/S.
Excerpt: as §2

The nature of the next data set: in vitro. The conditions noted are these: African green monkey.
Excerpt: as §2

Setting [5] is: in vitro, wild-type strain TM4/8.2.
Setting [6] is: in vitro, quadruple mutant strain V1/S.

Where two headings read alike, the source gives them in different places.

Usually Ki stands for the dissociation constant of the complex between target and ligand, obtained from inhibition or displacement.

wild type (WT) pfDHFR, sequence (P13922 whole entry R59C/N108S): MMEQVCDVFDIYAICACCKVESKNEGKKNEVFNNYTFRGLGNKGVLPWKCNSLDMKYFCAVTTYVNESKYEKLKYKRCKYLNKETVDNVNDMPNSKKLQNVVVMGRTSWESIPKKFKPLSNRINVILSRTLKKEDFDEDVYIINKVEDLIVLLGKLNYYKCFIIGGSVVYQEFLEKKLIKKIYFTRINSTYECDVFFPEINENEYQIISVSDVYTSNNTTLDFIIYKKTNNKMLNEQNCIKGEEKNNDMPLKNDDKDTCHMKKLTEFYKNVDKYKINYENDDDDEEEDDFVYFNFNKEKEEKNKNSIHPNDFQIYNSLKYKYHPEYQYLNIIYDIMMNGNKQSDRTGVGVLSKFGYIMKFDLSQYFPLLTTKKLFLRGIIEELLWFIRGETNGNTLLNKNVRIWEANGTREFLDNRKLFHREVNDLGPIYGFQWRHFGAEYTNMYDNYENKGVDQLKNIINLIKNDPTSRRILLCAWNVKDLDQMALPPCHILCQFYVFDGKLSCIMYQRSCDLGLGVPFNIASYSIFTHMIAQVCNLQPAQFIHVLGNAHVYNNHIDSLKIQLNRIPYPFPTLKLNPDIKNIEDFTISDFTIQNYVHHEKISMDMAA
quadruple mutant N51I + C59R + S108N + I164L (QM) pfDHFR, sequence (P13922 whole entry N51I/I164L): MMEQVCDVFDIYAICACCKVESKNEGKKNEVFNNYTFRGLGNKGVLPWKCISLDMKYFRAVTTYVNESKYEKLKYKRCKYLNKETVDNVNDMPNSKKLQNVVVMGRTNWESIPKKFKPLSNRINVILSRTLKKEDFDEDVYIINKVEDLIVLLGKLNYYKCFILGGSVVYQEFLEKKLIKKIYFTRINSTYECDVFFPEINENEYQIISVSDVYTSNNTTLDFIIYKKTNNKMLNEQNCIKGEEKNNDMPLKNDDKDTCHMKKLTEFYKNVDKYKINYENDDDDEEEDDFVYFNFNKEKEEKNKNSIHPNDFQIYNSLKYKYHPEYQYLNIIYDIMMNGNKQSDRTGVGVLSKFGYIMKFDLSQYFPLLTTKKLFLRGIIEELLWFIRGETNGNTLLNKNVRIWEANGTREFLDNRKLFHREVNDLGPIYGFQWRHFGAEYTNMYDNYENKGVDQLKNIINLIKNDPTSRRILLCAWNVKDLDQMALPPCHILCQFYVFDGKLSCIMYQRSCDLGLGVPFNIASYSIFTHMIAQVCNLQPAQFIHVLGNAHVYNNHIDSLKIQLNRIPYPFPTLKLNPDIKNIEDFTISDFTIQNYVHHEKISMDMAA

Regarding `CCc1nc(N)nc(N)c1OCCCc1cn(-c2cccc(C(=O)O)c2)nn1` [Compound 23], the results for the Ki (at wild type (WT) pfDHFR; in data set [1]; in data set [2]) were 0.25 ± 0.02 nM, 0.42 ± 0.06 nM and 22.7 ± 2.76 nM, respectively. The IC50 in data set [3] (setting [5]) is 6.4 ± 0.5 nM; in data set [4] (setting [6]) it was 320 ± 120 nM; in the data set “in vitro”, > 25000 nM.

Take `CCc1nc(N)nc(N)c1OCc1cc(-c2cccc(OC)c2)no1` [Compound 38]: the Ki at wild type (WT) pfDHFR came out at 0.55 ± 0.1 nM; in data set [1] it was 22.8 ± 3.09 nM; in data set [2], 1080 ± 31 nM. Moreover, the IC50 is 570 ± 190 nM in data set [3] (setting [5]), > 25000 nM in data set [4] (setting [6]) and > 25000 nM in “in vitro”.

As to `CCc1nc(N)nc(N)c1OCc1csc(-c2ccc(Br)cc2)n1` [Compound 71], the Ki at wild type (WT) pfDHFR turned out to be 0.76 ± 0.15 nM; in data set [1], 24.3 ± 1.75 nM; in data set [2], 203 ± 27.2 nM. The IC50 in data set [3] (setting [5]) was 1090 ± 440 nM; in data set [4] (setting [6]) it was 18700 ± 1900 nM; in “in vitro” it was > 25000 nM.

Turning to `CCc1nc(N)nc(N)c1-c1cn(CCCOc2ccc(Cl)cc2)nn1` [Compound 11], the figures for the Ki (at wild type (WT) pfDHFR; in data set [1]; in data set [2]) were 1.12 ± 0.08 nM, 32.1 ± 8.31 nM and 1120 ± 91.4 nM, respectively. Also, the IC50 in data set [3] (setting [5]) is 2420 ± 550 nM; in data set [4] (setting [6]) it was > 50000 nM; in “in vitro”, 48700 ± 13600 nM.

In the case of `CCc1nc(N)nc(N)c1OCCc1cn(-c2ccc(C(=O)OC)cc2)nn1` [Compound 21], the results for the Ki (on wild type (WT) pfDHFR; in data set [1]; in data set [2]) were 0.48 ± 0.1 nM, 8.56 ± 1.46 nM and 1060 ± 89.5 nM, respectively. Further, the IC50 in data set [3] (setting [5]) is 490 ± 70 nM; in data set [4] (setting [6]), > 25000 nM; in “in vitro”, > 25000 nM.

For the molecule `CCc1nc(N)nc(N)c1-c1cn(CCc2ccccc2)nn1` [Compound 7], the Ki at wild type (WT) pfDHFR was 2.24 ± 0.1 nM; in data set [1] it was 70.1 ± 6.92 nM; in data set [2], 3220 ± 86.2 nM. In addition, the figures for the IC50 (in data set [3]; in data set [4]; in the data set “in vitro”) were 2620 ± 330 nM, > 50000 nM and > 50000 nM, respectively.

On to `CCc1nc(N)nc(N)c1OCc1cn(-c2cccc(C(=O)OC)c2)nn1` [Compound 15], for which the Ki worked out at 1.85 ± 0.36 nM at wild type (WT) pfDHFR and 208 ± 16.6 nM in data set [1]. Also, the “Ki hDHFR” value in data set [2] is reported as “High”. Besides, the IC50 is 730 ± 230 nM in data set [3] (setting [5]), 17600 ± 1500 nM in data set [4] (setting [6]) and > 50000 nM in “in vitro”.

Take `CCc1nc(N)nc(N)c1-c1cn(CCOc2ccc(Cl)cc2)nn1` [Compound 9]: the figures for the Ki (at wild type (WT) pfDHFR; in data set [1]; in data set [2]) were 1.14 ± 0.06 nM, 10.8 ± 1.02 nM and 1670 ± 59.5 nM, respectively. Also, the IC50 in data set [3] turned out to be 2240 ± 600 nM; in data set [4] it was 15900 ± 5630 nM; in the data set “in vitro” it was 47400 ± 11600 nM.

Take `CCc1nc(N)nc(N)c1OCc1csc(-c2ccc(C(=O)OC)cc2)n1` [Compound 74]: the Ki is 0.65 ± 0.06 nM at wild type (WT) pfDHFR, 34 ± 5.42 nM in data set [1] and 447 ± 110 nM in data set [2]. Moreover, the IC50 in data set [3] is 400 ± 130 nM; in data set [4], 15900 ± 2110 nM; in the data set “in vitro” it was > 50000 nM.

For `CCc1nc(N)nc(N)c1OCc1csc(-c2cccc([N+](=O)[O-])c2)n1` [Compound 62], the Ki was found to be 0.74 ± 0.07 nM on wild type (WT) pfDHFR, 53.2 ± 8.93 nM in data set [1] and 134 ± 7.24 nM in data set [2]. For the same molecule, the IC50 in data set [3] (setting [5]) came out at 460 ± 70 nM; in data set [4] (setting [6]), 3980 ± 520 nM; in the data set “in vitro”, 17900 ± 6230 nM.

Regarding `CCc1nc(N)nc(N)c1OCc1cn(Cc2ccc(O)cc2)nn1` [Compound 28], the Ki at wild type (WT) pfDHFR amounted to 53.7 ± 5.6 nM. Further, the “Ki pfDHFR N51I + C59R + S108N + I164L (QM)” value in data set [1] (quadruple mutant pfDHFR, hydrochloride salts) was “High”. The “Ki hDHFR” value in data set [2] was “High”. In addition, the IC50 (in data set [3] (setting [5]); in data set [4] (setting [6]); in “in vitro”) was > 1000 nM each time.

Turning to `CCc1nc(N)nc(N)c1OCCc1cn(Cc2ccc(O)cc2)nn1` [Compound 30], the Ki on wild type (WT) pfDHFR was 8.86 ± 0.8 nM; in data set [1], 756 ± 62.6 nM. In addition, the “Ki hDHFR” value in data set [2] is reported as “High”. Besides, the IC50 in data set [3] (setting [5]) is 12400 ± 4710 nM; in data set [4] (setting [6]), > 50000 nM; in the data set “in vitro” it was > 50000 nM.

In the case of `CCc1nc(N)nc(N)c1OCc1coc(-c2cccc(OCC(=O)OCc3ccccc3)c2)n1` [Compound 53], the figures for the Ki (on wild type (WT) pfDHFR; in data set [1]; in data set [2]) were 0.83 ± 0.08 nM, 45.5 ± 5.02 nM and 681 ± 70.3 nM, respectively. The values for the IC50 (in data set [3] (setting [5]); in data set [4] (setting [6]); in the data set “in vitro”) were 1760 ± 670 nM, > 10000 nM and > 10000 nM, respectively.

Turning to `CCc1nc(N)nc(N)c1OCc1cn(-c2ccccc2)nn1` [Compound 13], the Ki was determined as 3.27 ± 0.28 nM on wild type (WT) pfDHFR and 377 ± 20.5 nM in data set [1]. The “Ki hDHFR” value in data set [2] is on record as “High”. The results for the IC50 (in data set [3] (setting [5]); in data set [4] (setting [6]); in “in vitro”) were 5730 ± 350 nM, > 25000 nM and > 25000 nM, respectively.

Regarding `CCc1nc(N)nc(N)c1OCc1csc(-c2cccc(C(=O)OC)c2)n1` [Compound 65], the inhibitory constant (Ki) came out at 0.51 ± 0.04 nM at wild type (WT) pfDHFR, 56.7 ± 5.79 nM in data set [1] and 195 ± 8.2 nM in data set [2]. Besides, the IC50 in data set [3] was 400 ± 80 nM; in data set [4], > 50000 nM; in “in vitro” it was > 50000 nM.

Take `CCc1nc(N)nc(N)c1OCc1coc(-c2ccc(OCC(=O)OCc3ccccc3)cc2)n1` [Compound 56]: the Ki is 0.81 ± 0.07 nM on wild type (WT) pfDHFR, 46.7 ± 4.68 nM in data set [1] and > 100000 nM in data set [2]. Also, the IC50 is 580 ± 220 nM in data set [3] (setting [5]), 23300 ± 2470 nM in data set [4] (setting [6]) and > 100000 nM in the data set “in vitro”.

On to `CCc1nc(N)nc(N)c1-c1cn(Cc2ccc(C(=O)OC)cc2)nn1` [Compound 4], for which the Ki at wild type (WT) pfDHFR turned out to be 3.3 ± 0.36 nM; in data set [1], 5.2 ± 0.62 nM; in data set [2], 555 ± 20.1 nM. The IC50 in data set [3] was 5530 ± 840 nM; in data set [4], > 25000 nM; in “in vitro”, > 25000 nM.

As for `CCc1nc(N)nc(N)c1OCc1csc(-c2cccc(OCC(=O)OCc3ccccc3)c2)n1` [Compound 63], the Ki amounted to 0.75 ± 0.1 nM at wild type (WT) pfDHFR, 33.9 ± 1.85 nM in data set [1] and 118 ± 14.8 nM in data set [2]. The IC50 in data set [3] (setting [5]) is 400 ± 70 nM; in data set [4] (setting [6]), > 50000 nM; in the data set “in vitro” it was > 50000 nM.

For the molecule `CCc1nc(N)nc(N)c1OCc1cn(-c2ccc(C(=O)OC)cc2)nn1` [Compound 18], the Ki stood at 6.54 ± 1.25 nM at wild type (WT) pfDHFR and 833 ± 45 nM in data set [1]. The “Ki hDHFR” value in data set [2] is given as “High”. In addition, the figures for the IC50 (in data set [3] (setting [5]); in data set [4] (setting [6]); in “in vitro”) were 10500 ± 3100 nM, 13600 ± 3220 nM and > 50000 nM, respectively.

As to `CCc1nc(N)nc(N)c1OCCc1cn(-c2ccc(C(=O)O)cc2)nn1` [Compound 22], the Ki stood at 0.26 ± 0.04 nM at wild type (WT) pfDHFR and 4.64 ± 0.6 nM in data set [1]. For the same molecule, in data set [2], the “Ki hDHFR” value is “High”. Further, the IC50 in data set [3] (setting [5]) was 620 ± 180 nM; in data set [4] (setting [6]) it was > 50000 nM; in the data set “in vitro” it was > 50000 nM.

With `CCc1nc(N)nc(N)c1OCc1cn(Cc2cc(F)c(O)c(F)c2)nn1` [Compound 27], the Ki amounted to 9.41 ± 0.85 nM at wild type (WT) pfDHFR and 285 ± 14.1 nM in data set [1]. In addition, the “Ki hDHFR” value in data set [2] is “High”. Further, the IC50 in data set [3] (setting [5]) was 16100 ± 6020 nM; in data set [4] (setting [6]) it was > 50000 nM; in “in vitro” it was > 50000 nM.

On to `CCc1nc(N)nc(N)c1OCCCc1cc(-c2cccc(C#N)c2)no1` [Compound 47], for which the Ki on wild type (WT) pfDHFR stood at 0.27 ± 0.03 nM; in data set [1], 1.02 ± 0.07 nM; in data set [2] it was 21.4 ± 0.91 nM. For the same molecule, the IC50 stood at 40 ± 7 nM in data set [3], 5510 ± 470 nM in data set [4] and 560 nM in “in vitro”.

In the case of `CCc1nc(N)nc(N)c1OCCCc1cc(-c2cccc(C(=O)OC)c2)no1` [Compound 48], the figures for the Ki (at wild type (WT) pfDHFR; in data set [1]; in data set [2]) were 0.26 ± 0.07 nM, 0.87 ± 0.15 nM and 25.2 ± 8.9 nM, respectively. Also, the values for the IC50 (in data set [3] (setting [5]); in data set [4] (setting [6]); in the data set “in vitro”) were 45 ± 1.5 nM, 100 ± 30 nM and 760 nM, respectively.

For the origin of these results see patent publication US11028072B2, “2,4-diamino-6-ethylpyrimidine derivatives with antimalarial activities against Plasmodium falciparum” (National Science and Technology Development Agency, priority 2015, dated 2021).
